Data on two molecules can be found in ChEMBL document CHEMBL1201862, “PubChem BioAssay data set” (2004).

The term EC50 denotes the concentration that produces a half-maximal response. The AC50 is the midpoint of the concentration-response curve, whichever way the signal moves. In general, CC50 refers to the concentration at which the toxic effect on the cells reaches its halfway point. The term IC50 denotes the concentration at which inhibition is half-maximal.

Activity calls are given as the source filed them. Unless noted, no cut-off for these calls is given here.

Test [1] concerns the target T1, Heat shock factor protein 1 (Mus musculus, UniProt P38532).
T1 sequence (P38532 whole entry): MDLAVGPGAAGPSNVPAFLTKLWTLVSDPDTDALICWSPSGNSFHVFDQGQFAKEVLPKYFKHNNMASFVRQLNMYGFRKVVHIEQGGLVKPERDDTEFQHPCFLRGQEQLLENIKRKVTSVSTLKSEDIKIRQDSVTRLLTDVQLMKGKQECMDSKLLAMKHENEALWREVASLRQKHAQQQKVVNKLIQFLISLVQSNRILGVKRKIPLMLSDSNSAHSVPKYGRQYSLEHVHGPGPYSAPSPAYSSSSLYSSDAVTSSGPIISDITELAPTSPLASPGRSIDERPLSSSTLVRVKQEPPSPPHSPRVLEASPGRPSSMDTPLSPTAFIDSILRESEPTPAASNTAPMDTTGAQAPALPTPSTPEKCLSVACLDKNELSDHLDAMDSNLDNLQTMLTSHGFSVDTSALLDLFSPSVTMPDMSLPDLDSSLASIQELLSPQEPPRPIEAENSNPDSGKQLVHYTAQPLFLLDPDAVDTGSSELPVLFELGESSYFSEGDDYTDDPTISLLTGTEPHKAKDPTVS
As to the kind of experiment: decrease of HSF1-responsive luciferase luminescence – cell-based, NIH3T3, dose retest, confirmation (AID 2382).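 Note: NIH3T3 fibroblasts with HSF1-driven luciferase reporter stressed by proteasome inhibitor MG132; luminescence from HSF1-driven luciferase expression after 8 hours of MG132 stress.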 Type of test: functional.

Test [2] addresses T2, Protein RecA (Mycobacterium tuberculosis, UniProt P9WHJ3).
T2 sequence (P9WHJ3 whole entry): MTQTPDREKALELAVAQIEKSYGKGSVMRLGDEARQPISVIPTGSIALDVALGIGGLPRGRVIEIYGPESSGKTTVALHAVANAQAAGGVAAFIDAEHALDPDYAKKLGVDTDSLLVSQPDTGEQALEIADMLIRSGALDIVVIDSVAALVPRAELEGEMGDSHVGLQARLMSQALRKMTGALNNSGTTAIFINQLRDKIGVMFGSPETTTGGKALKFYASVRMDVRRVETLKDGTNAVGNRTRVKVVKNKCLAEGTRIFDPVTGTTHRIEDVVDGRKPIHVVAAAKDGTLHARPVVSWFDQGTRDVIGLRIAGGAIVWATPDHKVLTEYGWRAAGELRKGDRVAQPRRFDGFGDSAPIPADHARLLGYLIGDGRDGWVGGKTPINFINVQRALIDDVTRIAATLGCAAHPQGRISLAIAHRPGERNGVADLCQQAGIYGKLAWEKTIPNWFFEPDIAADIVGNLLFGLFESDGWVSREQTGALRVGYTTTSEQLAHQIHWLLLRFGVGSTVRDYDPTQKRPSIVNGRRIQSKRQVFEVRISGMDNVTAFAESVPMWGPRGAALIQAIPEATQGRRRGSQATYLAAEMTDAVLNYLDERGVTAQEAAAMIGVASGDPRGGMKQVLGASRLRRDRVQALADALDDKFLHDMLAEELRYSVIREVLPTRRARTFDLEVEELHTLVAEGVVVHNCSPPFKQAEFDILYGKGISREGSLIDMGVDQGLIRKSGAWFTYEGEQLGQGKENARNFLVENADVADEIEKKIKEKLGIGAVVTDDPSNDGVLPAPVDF
As to the kind of experiment: GFP-RecA MOA-DTT Measured in Biochemical System Using Plate Reader - 2047-05_Inhibitor_Dose_DryPowder_Activity. [Related pubchem assays (depositor defined):AID2223]. Details: species or system Mycobacterium tuberculosis H37Rv.

Test [3] is described as follows: compounds quenching green fluorescent protein signal – biochemical, plate reader, dry powder, artefact control, dose response (AID 493243).
The nature of test [4]: Intein inhibitors as potential Tuberculosis drugs, a cytotoxicity screen. [Related pubchem assays (depositor defined):AID2221, AID2223, AID434968, AID435010, AID449749, AID449750, AID489010]. Type of test: functional.
Test [5] concerns the target T3, Replicative DNA helicase DnaB (Mycobacterium tuberculosis, UniProt P9WMR3).
T3 sequence (P9WMR3 whole entry): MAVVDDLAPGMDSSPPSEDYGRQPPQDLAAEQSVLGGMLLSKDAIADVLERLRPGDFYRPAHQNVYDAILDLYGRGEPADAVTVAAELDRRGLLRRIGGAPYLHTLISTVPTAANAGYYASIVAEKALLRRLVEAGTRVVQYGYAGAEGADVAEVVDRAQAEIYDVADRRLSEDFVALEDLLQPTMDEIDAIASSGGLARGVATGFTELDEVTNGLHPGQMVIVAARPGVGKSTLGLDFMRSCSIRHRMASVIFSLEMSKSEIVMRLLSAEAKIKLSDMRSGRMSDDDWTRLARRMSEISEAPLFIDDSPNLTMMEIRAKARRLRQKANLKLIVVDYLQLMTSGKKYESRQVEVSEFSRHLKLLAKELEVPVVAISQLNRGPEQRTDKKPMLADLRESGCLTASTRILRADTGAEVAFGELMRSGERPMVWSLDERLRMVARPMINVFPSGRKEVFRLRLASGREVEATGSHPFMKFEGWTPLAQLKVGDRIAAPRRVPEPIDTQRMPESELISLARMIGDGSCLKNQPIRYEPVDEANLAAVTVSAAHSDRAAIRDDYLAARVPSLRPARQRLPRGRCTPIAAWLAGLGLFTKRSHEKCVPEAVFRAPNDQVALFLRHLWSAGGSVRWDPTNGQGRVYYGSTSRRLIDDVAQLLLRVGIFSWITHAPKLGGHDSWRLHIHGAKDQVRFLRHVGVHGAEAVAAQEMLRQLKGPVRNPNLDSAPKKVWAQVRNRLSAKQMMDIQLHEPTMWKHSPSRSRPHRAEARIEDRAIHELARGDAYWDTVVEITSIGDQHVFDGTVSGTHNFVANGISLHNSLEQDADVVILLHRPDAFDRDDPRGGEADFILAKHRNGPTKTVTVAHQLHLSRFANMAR
As to the kind of experiment: DnaB Intein secondary assay Measured in Biochemical System Using Plate Reader - 2047-04_Inhibitor_Dose_DryPowder_Activity. [Related pubchem assays (depositor defined):AID2223].

Test [6] deals with DNA damage-inducible transcript 3 protein (Mus musculus, UniProt P35639). Type of test: functional, Cricetulus griseus.
For test [7], the target named is T2, Protein RecA. As to the kind of experiment: RecA Intein Measured in Biochemical System Using Plate Reader - 2047-02_Inhibitor_Dose_DryPowder_Activity. [Related pubchem assays (depositor defined):AID2223]. Details: species or system Mycobacterium tuberculosis H37Rv.
Test [8] has as its target T3, Replicative DNA helicase DnaB. As to the kind of experiment: DnaB intein splicing inhibitors, dose response, biochemical, cell-free fluorescence (AID 449749). Type of test: functional.
In test [9] the target is T2, Protein RecA. As to the kind of experiment: Fluorescence Cell-Free Homogeneous Dose Retest to Identify Inhibitors of RecA-Intein Splicing Activity. [Related pubchem assays (depositor defined):AID2097, AID2223, AID489010, AID492950]. Type of test: functional.
A short description of test [10]: cells. Type of test: functional, cell-based.
Test [11] addresses T4, SUMO-activating enzyme (Homo sapiens, UniProt Q9UBT2). As to the kind of experiment: blockers of UBC9-mediated SUMO conjugation – biochemical, AlphaScreen, SUMOylation inhibitor project, confirmation (AID 2018). Type of test: functional. For orientation: In Alpha technology, singlet oxygen from a donor bead excites a nearby acceptor bead.
For test [12], the target named is T4, SUMO-activating enzyme. As to the kind of experiment: blockers of SAE1/SAE2–UBC9 SUMO transfer – biochemical, HTRF, uHTS, primary screen (AID 2006). Type of test: protein-complex assay. For orientation: TR-FRET usually uses a lanthanide donor and a delayed reading to cut background.
Test [13] can be described thus: cells. Type of test: functional, cell-based. The source holds these as a separate data set.
Test [14] in a line: Luminescence Cell-Based Dose Retest to Confirm Inhibitors of Cancer Stem Cells. [Related pubchem assays (depositor defined):AID2717, AID2721]. Type of test: functional. To be noted: Homo sapiens.
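Throughout, for CC50: cells exposed to compound for 72 hours before luminescence readout.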

T4 sequence (Q9UBE0 whole entry): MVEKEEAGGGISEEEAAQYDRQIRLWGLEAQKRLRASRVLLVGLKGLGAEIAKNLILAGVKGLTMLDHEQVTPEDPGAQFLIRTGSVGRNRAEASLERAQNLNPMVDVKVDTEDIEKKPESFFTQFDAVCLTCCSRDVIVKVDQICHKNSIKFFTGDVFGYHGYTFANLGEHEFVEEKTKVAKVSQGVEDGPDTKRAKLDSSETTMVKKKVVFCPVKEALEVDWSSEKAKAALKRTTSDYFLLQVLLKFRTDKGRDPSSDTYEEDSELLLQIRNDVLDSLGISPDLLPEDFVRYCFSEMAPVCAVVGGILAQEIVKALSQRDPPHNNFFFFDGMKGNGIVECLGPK
T4 sequence (Q9UBT2 whole entry): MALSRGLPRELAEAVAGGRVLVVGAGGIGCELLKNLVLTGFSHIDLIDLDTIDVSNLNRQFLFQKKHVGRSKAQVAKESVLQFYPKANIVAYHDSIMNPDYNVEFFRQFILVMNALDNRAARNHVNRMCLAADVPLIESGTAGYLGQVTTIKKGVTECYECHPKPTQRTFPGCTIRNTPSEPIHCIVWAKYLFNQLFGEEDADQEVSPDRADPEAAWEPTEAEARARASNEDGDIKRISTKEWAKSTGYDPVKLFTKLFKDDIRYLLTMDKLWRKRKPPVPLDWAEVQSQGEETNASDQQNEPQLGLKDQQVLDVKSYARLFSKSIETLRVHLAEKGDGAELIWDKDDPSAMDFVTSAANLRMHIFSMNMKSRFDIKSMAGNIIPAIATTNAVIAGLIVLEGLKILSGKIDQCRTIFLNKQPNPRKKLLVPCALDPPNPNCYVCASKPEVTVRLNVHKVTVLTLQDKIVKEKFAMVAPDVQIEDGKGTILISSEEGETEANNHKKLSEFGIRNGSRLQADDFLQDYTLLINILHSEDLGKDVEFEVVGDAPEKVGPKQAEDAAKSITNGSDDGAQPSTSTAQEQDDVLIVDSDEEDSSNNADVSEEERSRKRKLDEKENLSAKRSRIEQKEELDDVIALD
Chain of DNA damage-inducible transcript 3 protein (P35639 whole entry): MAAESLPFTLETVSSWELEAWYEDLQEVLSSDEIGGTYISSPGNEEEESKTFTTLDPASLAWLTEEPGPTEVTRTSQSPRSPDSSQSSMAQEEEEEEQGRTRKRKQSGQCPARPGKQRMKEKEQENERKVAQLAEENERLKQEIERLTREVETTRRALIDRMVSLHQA

Consider `O=C(CCl)Nc1cn(-c2ccccc2)nc1-c1ccc(F)cc1`, for which the EC50 in test [1] is 6.91 µM (active); at Protein RecA [9], 2.77 µM (active). Moreover, the AC50 on Protein RecA [2] was 29.4 µM (active); in [3] it was 262 µM (active); in test [5], 101 µM (active); at Protein RecA [7], 8.58 µM (active); in [8], 2.77 µM (active). The CC50 in test [4] was 6.59 µM (active). Besides, the “Absolute IC50 (CHOP)” value in test [6] came out at 10 µM.

Turning to `C/C(=N\OCc1nc2ccccc2c(=O)n1/N=C/c1cc([N+](=O)[O-])ccc1O)c1ccccc1`, the EC50 in the test “cells [10]” is 245 µM (active); in “cells [13]”, > 350 µM (not active). The IC50 at SUMO-activating enzyme [11] is 5.22 µM (active); at SUMO-activating enzyme [12], 41.1 µM (active). Also, the AC50 in test [14] was 7.33 µM (active).
